Here are results for 26 compounds from patent publication US4877795A, “4H-quinolizin-4-one compounds useful for the treatment of allergic bronchial asthma, allergic rhinitis atropic dermatitis and the like” (Kissei Pharmaceutical Co., Ltd., priority 1987, dated 1989).

Assay [1] has as its system IgG. Put plainly: Determination of Igs produced in in vitro culture: inhibition of IgG secreted by spleen cells (adoptive secondary immune response to DNP-As), ELISA. In kind it is cell-based, BALB/c mice. To be noted: Mus musculus, 96 h, 4 days culture; for inhibition at 5 µg/mL: 5.0 μg/ml; for inhibition at 1 µg/mL: 1.0 μg/ml; for inhibition at 2.5 µg/mL: 2.5 μg/ml; for inhibition at 0.25 µg/mL: 0.25 μg/ml. As for the experimental part:
(§1) Determination of Igs produced in in vitro culture
(§2) BALB/c mice were immunized intraperitoneally with 5 μg of DNP-As adsorbed in 4 mg aluminum hydroxide gel. 4 weeks after the immunization, the spleens were excised from the mice and 5×10^7 spleen cells were transferred intravenously into the recipient mice which had been exposed to 600 rad of X-ray irradiation. Immediately after cell transfer, the recipients were then immunized intraperitoneally with 5 μg of DNP-As adsorbed in 4 mg aluminum hydroxide gel to induce adoptive secondary immune response. Further 4 weeks after the immunization of recipients, the spleens were excised from them and the spleen cell suspensions 5×10^6 cells/ml were cultured with or without a compound to be tested in 96-well micro plates at 37° C. for 4 days. IgE and IgG secreted into the culture supernatant was each determined correspondingly by ELISA and the inhibitory effect was calculated according to the following equation. [formula]
A general note: ELISA stands for enzyme-linked immunosorbent assay.

Assay [2] concerns IgE. Put plainly: Determination of Igs produced in in vitro culture: inhibition of IgE secreted by spleen cells (adoptive secondary immune response to DNP-As), ELISA. In kind it is cell-based, BALB/c mice. To be noted: Mus musculus, 96 h, 4 days culture; for inhibition at 5 µg/mL: 5.0 μg/ml; for inhibition at 1 µg/mL: 1.0 μg/ml; for inhibition at 2.5 µg/mL: 2.5 μg/ml; for inhibition at 0.25 µg/mL: 0.25 μg/ml. As to the method: as §1, §2

For the compound `CSc1c(C#N)c(=O)n2ccccc2c1C(=O)N1CCN(Cc2ccccc2)CC1` [S-90, 1-(4-Benzyl-1-piperadinylcarbonyl)-3-cyano-2-methylthio-4H-quinolizin-4-one], the values for the inhibition at 5 µg/mL in assay [1] and in assay [2] were 14% and 45%, respectively.
In the case of `CSc1c(C#N)c(=O)n2ccccc2c1C(=O)N1CCC(Cc2ccccc2)CC1` (single isomer, unassigned) [S-82A, 1-(4-Benzylpiperidinocarbonyl)-3-cyano-2-methylthio-4H-quinolizin-4-one], the inhibition – broadly, the percentage by which the read-out fell short of the control – at 1 µg/mL in assay [1] was determined as 18%; in assay [2], 43%.
As to `CCCCCCN(CCCCCC)C(=O)c1c(SC)c(C#N)c(=O)n2ccccc12` [S-65, 3-Cyano-N,N-dihexyl-2-methylthio-4H-quinolizin-4-one-1-carboxamide], the inhibition at 2.5 µg/mL amounted to 40% in assay [1] and 87% in assay [2].
On to `C=CCN(C(=O)c1c(SC)c(C#N)c(=O)n2ccccc12)C1CCCCC1` [S-70, N-Allyl-3-cyano-N-cyclohexyl-2-methylthio-4H-quinolizin-4-one-1-carboxamide], for which the inhibition at 5 µg/mL in assay [1] was 32%; in assay [2] it was 65%.
For the compound `CSc1c(C#N)c(=O)n2ccccc2c1C(=O)OCCCOc1ccccc1` [S-54, 3'-Phenoxypropyl 3-cyano-2-methylthio-4H-quinolizin-4-one-1-carboxylate], the inhibition at 1 µg/mL in assay [1] is 50%; in assay [2] it was 73%.
`CSc1c(C#N)c(=O)n2ccccc2c1C(=O)N(C1CCCCC1)C1CCCCC1` [S-61, 3-Cyano-N,N-dicyclohexyl-2-methylthio-4H-quinolizin-4-one-1-carboxamide]: the figures for the inhibition at 2.5 µg/mL in assay [1] and in assay [2] were 48% and 93%, respectively.
As to `CSc1c(C#N)c(=O)n2ccccc2c1C(=O)N1CCC2CCCCC21` (single isomer, unassigned) [S-85A, 3-Cyano-2-methylthio-1-(perhydroindol-1-yl-carbonyl)-4H-quinolizin-4-one], the inhibition at 5 µg/mL in assay [1] stood at 23%; in assay [2], 43%.
For `CSc1c(C#N)c(=O)n2ccccc2c1C(=O)OCCCCc1ccccc1` [S-49, 4'-Phenylbutyl 3-cyano-2-methylthio-4H-quinolizin-4-one-1-carboxylate], the inhibition at 1 µg/mL turned out to be 56% in assay [1] and 80% in assay [2].
In the case of `COc1ccccc1COC(=O)c1c(SC)c(C#N)c(=O)n2ccccc12` [S-37, 2'-Methoxybenzyl 3-cyano-2-methylthio-4H-quinolizin-4-one-1-carboxylate], the inhibition at 0.25 µg/mL in assay [1] worked out at 11%; in assay [2], 36%.
Turning to `CSc1c(C#N)c(=O)n2ccccc2c1C(=O)OC(C)C` [S-8, Isopropyl 3-cyano-2-methylthio-4H-quinolizin-4-one-1-carboxylate], the values for the inhibition at 2.5 µg/mL in assay [1] and in assay [2] were 18% and 36%, respectively.
For `CCCCOC(=O)c1c(SC)c(C#N)c(=O)n2ccccc12` [S-9, Butyl 3-cyano-2-methylthio-4H-quinolizin-4-one-1-carboxylate], the inhibition at 2.5 µg/mL came out at 17% in assay [1] and 54% in assay [2].
Regarding `CSc1c(C#N)c(=O)n2ccccc2c1C(=O)OCCOc1ccc(Cl)cc1` [S-53, 2'-(4-Chorophenoxy)ethyl 3-cyano-2-methylthio-4H-quinolizin-4-one-1-carboxylate], the values for the inhibition at 0.25 µg/mL in assay [1] and in assay [2] were 49% and 69%, respectively.
In the case of `CSc1c(C#N)c(=O)n2ccccc2c1C(=O)OC1CCCCC1` [S-14, Cyclohexyl 3-cyano-2-methylthio-4H-quinolizin-4-one-1-carboxylate], the inhibition at 1 µg/mL in assay [1] worked out at 39%; in assay [2] it was 69%.
`CSc1c(C#N)c(=O)n2ccccc2c1C(=O)OCCSc1ccccc1` [S-55, 2'-Phenylthioethyl 3-cyano-2-methylthio-4H-quinolizin-4-one-1-carboxylate]: the inhibition at 0.25 µg/mL came to 29% in assay [1] and 51% in assay [2].
On to `CSc1c(C#N)c(=O)n2ccccc2c1C(=O)OCc1ccccc1Cl` [S-39, 2'-Chlorobenzyl 3-cyano-2-methylthio-4H-quinolizin-4-one-1-carboxylate], for which the values for the inhibition at 1 µg/mL in assay [1] and in assay [2] were 31% and 65%, respectively.
In the case of `CSc1c(C#N)c(=O)n2ccc(C)cc2c1C(=O)CCCCc1ccccc1` [S-108, 3-Cyano-8-methyl-2-methylthio-1-(5-phenylvaleryl)-4H-quinolizin-4-one], the inhibition at 1 µg/mL was determined as 35% in assay [1] and 60% in assay [2].
For `CSc1c(C#N)c(=O)n2ccccc2c1C(=O)N1CCN(c2ccccc2)CC1` [S-91, 3-Cyano-2-methylthio-1-(4-phenyl-1-piperadinylcarbonyl)-4H-quinolizin-4-one], the inhibition at 2.5 µg/mL in assay [1] was found to be 11%; in assay [2], 39%.
Take `CSc1c(C#N)c(=O)n2ccccc2c1C(=O)Nc1nc(-c2ccccc2)cs1` [S-75, 3-Cyano-2-methylthio-N-(4-phenyl-2-thiazolyl)-4H-quinolizin-4-one-1-carboxamide]: the results for the inhibition at 2.5 µg/mL in assay [1] and in assay [2] were 25% and 50%, respectively.
In the case of `CSc1c(C#N)c(=O)n2ccccc2c1C(=O)N(C(C)C)C1CCCCC1` [S-69, 3-Cyano-N-cyclohexyl-N-isopropyl-2-methylthio-4H-quinolizin-4-one-1-carboxamide], the inhibition at 2.5 µg/mL in assay [1] came out at 22%; in assay [2], 56%.
In the case of `CCN(CC)C(=O)c1c(SC)c(C#N)c(=O)n2ccccc12` [S-62, 3-Cyano-N,N-diethyl-2-methylthio-4H-quinolizin-4-one-1-carboxamide], the inhibition at 40 µg/mL is 36% in assay [1] (40.0 μg/ml) and 64% in assay [2] (40.0 μg/ml).
Turning to `CSc1c(C#N)c(=O)n2ccccc2c1C(=O)CCc1ccccc1` [S-104, 3-Cyano-2-methylthio-1-(3-phenylpropionyl)-4H-quinolizin-4-one], the results for the inhibition at 2.5 µg/mL in assay [1] and in assay [2] were 39% and 66%, respectively.
`COc1ccc(CC(=O)c2c(SC)c(C#N)c(=O)n3ccccc23)cc1` [S-102, 3-Cyano-1-(4-methoxyphenylacetyl)-2-methylthio-4H-quinolizin-4-one]: the results for the inhibition at 10 µg/mL in assay [1] (10.0 μg/ml) and in assay [2] (10.0 μg/ml) were 20% and 52%, respectively.
Regarding `CSc1c(C#N)c(=O)n2ccc(C)cc2c1C(=O)OCCc1ccccc1` [S-50, 2'-Phenylethyl 3-cyano-8-methyl-2-methylthio-4H-quinolizin-4-one-1-carboxylate], the inhibition at 1 µg/mL in assay [1] is 42%; in assay [2] it was 64%.
The like results for `CSc1c(C#N)c(=O)n2ccccc2c1C(=O)CCCc1ccccc1` [S-105, 3-Cyano-2-methylthio-1-(4-phenylbutyryl)-4H-quinolizin-4one] were, in that order, 21% and 65%.
As for `CSc1c(C#N)c(=O)n2ccc(C)cc2c1C(=O)OCc1ccccc1` [S-28, Benzyl 3-cyano-8-menthyl-2-methylthio-4H-quinolizin-4-one-1-carboxylate], the inhibition at 2.5 µg/mL in assay [1] was 24%; in assay [2] it was 49%.
On to `CSc1c(C#N)c(=O)n2ccccc2c1C(=O)Nc1ccc(Nc2ccccc2)cc1` [S-74, N-(4-Anilinophenyl)-3-cyano-2-methylthio-4H-quinolizin-4-one-1-carboxamide], for which the inhibition at 2.5 µg/mL came out at 10% in assay [1] and 51% in assay [2].
